{
  "source": "patent US12329739B2",
  "about": "“Isoflavonoid compounds and methods for the treatment of cancer” (Aardvark Therapeutics, Inc., priority 2010, dated 2025)",
  "key": {"[1]": {"tested_on": "R-182", "experiment": "MTT proliferation assay, R-182", "type": "cell-based", "conditions": "Ovarian, R-182, 120 h of exposure", "description": "Tissue culture. The multidrug resistant primary epithelial ovarian cancer cell line R-182 TARA was a gift from Dr. Gil Mor (Yale University, New Haven, CT, USA). This cell line was derived by explant from ovarian tumors and cultured as previously described. All other cell lines were purchased from American Type Culture Collection (ATCC, Manassas, VA, USA) with the exception of MKN1, HuH-7, JHH-1, which were purchased from the Japanese Collection of Research Bioresources (JCRB, Osaka, Japan), and OE19 which was purchased from the European Collection of Cell Cultures (ECACC, Salisbury, UK).\n(§1) Proliferation Assays. IC50 values were determined for each cell line. Cells were seeded in 96-well plates at an appropriate cell density as determined from growth kinetics analysis and cultured for 5 days in the absence and presence of the test compounds. Cell proliferation was assessed after the addition of 20 μl of 3-4,5 dimethylthiazol-2,5-diphenyl tetrazolium bromide (MTT, 5 mg/ml in PBS, Sigma) for 5 hrs at 37° C. according to manufacturer's instructions. IC50 values were calculated from semi-log plots of % of control proliferation on the y-axis against log dose on the x-axis.\n(§2) Anti-proliferative Activity of Isoflavonoid Derivatives. IC50 values were determined for each cell line after 120 h of exposure."}, "[2]": {"tested_on": "4405", "experiment": "MTT proliferation assay, 4405", "type": "cell-based", "conditions": "Melanoma, 4405, 120 h of exposure", "protocol": "as §1, §2"}, "[3]": {"experiment": "Solubility in Captisol solution", "type": "physicochemical", "conditions": "20% Captisol solution, aqueous with cosolvent or surfactant or cyclodextrin, 25° C., read-out: solubility limit", "protocol": "(20% Captisol®). Formulation is carried out under aseptic conditions. Sterility is achieved by terminal filtration through a 0.22 micron filter."}, "[4]": {"tested_on": "COLO205", "experiment": "MTT proliferation assay, COLO205", "type": "cell-based, human", "conditions": "Homo sapiens, COLO 205; CRC, COLO205, 120 h of exposure", "protocol": "(§3) The human non-small cell lung adenocarcinoma lines NCI-H1299 (CRL-5803), NCI-H460 (HTB-177), NCI-H358 (CRL-5807), NCI-H838 (CRL-5844), the human colorectal adenocarcinoma lines COLO 205 (CCL-222), HCT-15 (CCL-225) and the human gastric cancer cell line NCI-N87 (CRL-5822) were cultured in RPMI 1640 medium containing 2 g/L sodium bicarbonate (Hyclone/Invitrogen) supplemented with 2 mM L-glutamine (Gibco) 1 mM sodium pyruvate (Sigma), 10 mM HEPES (Sigma) and 4500 mg/L glucose (Sigma). The human non-small cell lung adenocarcinoma line NCI-H2126 (CCL-256) was cultured in DMEM:F12(1:1) (Hyclone/Invitrogen) containing 2.5 mM L-glutamine 2.4 g/L sodium bicarbonate supplemented with 5% fetal bovine serum (FBS), an additional 2 mM L-glutamine, 15 mM HEPES, 0.005 mg/ml insulin (Sigma), 0.01 mg/ml transferrin (Sigma), 30 nM sodium selenite (Sigma), 10 nM hydrocortisone (Sigma) and 10 nM beta-estradiol (Sigma). The human colorectal adenocarcinoma line HT-29 (HTB-38) and the human gastric cancer cell lines OE-19 (#96071721) and MKN1 (JCRB0252) were cultured in RPMI 1640 media supplemented with 2 mM L-glutamine.\nas §1, §2"}, "[5]": {"tested_on": "MDA-MB-468", "experiment": "MTT proliferation assay, MDA-MB-468", "type": "cell-based, human", "protocol": "The human gastric cancer cell line AGS (CRL-1739) was cultured in Hams F-12K (Kaighans modification) medium containing 2 mM L-glutamine, 2.5 g/L sodium bicarbonate and 2 mM sodium pyruvate. The human breast adenocarcinoma line MDA-MB-468 (HTB-132) was cultured in DMEM:F12 (1:1) medium containing 2.5 mM L-glutamine, 2.4 g/L sodium bicarbonate, supplemented with an additional 2 mM L-glutamine.\nas §1, §2"}, "[6]": {"tested_on": "NCI-H460", "experiment": "MTT proliferation assay, NCI-H460", "type": "cell-based, human", "conditions": "Homo sapiens; NSCLC, NCI-H460, 120 h of exposure", "protocol": "as §3, §1, §2"}, "[7]": {"tested_on": "A2780", "experiment": "MTT proliferation assay, A2780", "type": "cell-based", "protocol": "as §1, §2"}, "[8]": {"tested_on": "A549", "experiment": "MTT proliferation assay, A549", "type": "cell-based", "conditions": "Homo sapiens; NSCLC, A549, 120 h of exposure", "protocol": "as §1, §2"}, "[9]": {"tested_on": "CP70", "experiment": "MTT proliferation assay, CP70", "type": "cell-based", "protocol": "as §1, §2"}, "[10]": {"tested_on": "HuH-7", "experiment": "MTT proliferation assay, HuH-7", "type": "cell-based, human", "conditions": "Homo sapiens; Liver, HuH-7, 120 h of exposure", "protocol": "The human hepatocellular carcinoma lines HepG2 (HB-8065), SK-HEP-1 (HTB-52) and the normal human lung fibroblast line IMR-90 (CCL-186) were cultured in Minimum Essential Eagles Medium containing 2 mM L-glutamine, 2.2 g/L sodium bicarbonate, supplemented with 1 mM sodium pyruvate and 0.1 mM non-essential amino acids. The human hepatocellular carcinoma line JHH-1 (JCRB1062) was cultured in Williams E Medium (Invitrogen) containing 2.2 g/L sodium bicarbonate, supplemented with 2 mM L-glutamine. The hepatocellular carcinoma line HuH-7 (JCRB0403) was cultured in DMEM, supplemented with 2 mM L-glutamine.\nas §1, §2"}, "[11]": {"tested_on": "SKBR-3", "experiment": "MTT proliferation assay, SKBR-3", "type": "cell-based, human", "protocol": "The human colorectal adenocarcinoma line HCT-116 (CCL-247) and the human breast adenocarcinoma line SK-BR-3 (HTB-30) were cultured in McCoy's 5a Medium (Invitrogen) containing 1.5 mM L-glutamine and 2.2 g/L sodium bicarbonate. The human colorectal adenocarcinoma line SW620 (CCL-227) was cultured in Leibovitz's L-15 Medium (Invitrogen) containing 2.05 mM L-glutamine.\nas §1, §2"}, "[12]": {"tested_on": "DU145", "experiment": "MTT proliferation assay, DU145", "type": "cell-based", "conditions": "Homo sapiens, DU-145; Prostate, DU145, 120 h of exposure", "protocol": "as §1, §2"}, "[13]": {"tested_on": "CALU3", "experiment": "MTT proliferation assay, CALU3", "type": "cell-based", "conditions": "Homo sapiens, Calu-3; NSCLC, CALU3, 120 h of exposure", "protocol": "as §1, §2"}, "[14]": {"tested_on": "MM2200", "experiment": "MTT proliferation assay, MM2200", "type": "cell-based", "conditions": "Table 2, Melanoma, MM2200, 120 hrs of exposure", "protocol": "as §1, §2\nActivity data is provided is Table 2."}},
  "note": "pIC50: −log10 of the molar value.",
  "data": [
    {"compound": "Oc1ccc([C@H]2c3ccc(O)cc3OC[C@H]2c2ccc(O)cc2)cc1", "note": "[Compound 31, d-cis-3-(4-hydroxyphenyl)-4-(4-hydroxyphenyl)chroman-7-ol]", "values": [
      {"measurement": "pIC50", "setting": "[1]", "value": "≥ 6.82"},
      {"measurement": "pIC50", "setting": "[2]", "value": "6.30 to 6.82"},
      {"measurement": "solubility", "setting": "[3]", "value": 27.9, "unit": "mg/mL"},
      {"measurement": "pIC50", "setting": "[4]", "value": "5.00 to 5.80"},
      {"measurement": "pIC50", "setting": "[5]; Homo sapiens, MDA-MB-468, 120 h, Breast, MDA-MB-468, 120 h of exposure", "value": "≥ 6.82"},
      {"measurement": "pIC50", "setting": "[5]; Table 2, Breast, MDA-MB-468, 120 hrs of exposure", "value": "≥ 6.82"},
      {"measurement": "pIC50", "setting": "[6]", "value": "5.82 to 6.29"},
      {"measurement": "anti-proliferative activity against various cancer cells compared with racemic (compound 32) and l-form (compound 33)", "setting": "[7]; 120 hrs of exposure, various cancer cells (Table 2)", "value": "superior anti-proliferative activity"},
      {"measurement": "pIC50", "setting": "[7]; Homo sapiens, A2780, 120 h, Ovarian, A2780, 120 h of exposure", "value": "6.30 to 6.82"},
      {"measurement": "pIC50", "setting": "[7]; Table 2, Ovarian, A2780, 120 hrs of exposure", "value": "6.30 to 6.82"},
      {"measurement": "pIC50", "setting": "[8]", "value": "5.82 to 6.29"},
      {"measurement": "pIC50", "setting": "[9]; 120 h, Ovarian, CP70, 120 h of exposure", "value": "5.82 to 6.29"},
      {"measurement": "pIC50", "setting": "[9]; Table 2, Ovarian, CP70, 120 hrs of exposure", "value": "6.30 to 6.82"},
      {"measurement": "pIC50", "setting": "[10]", "value": "6.30 to 6.82"},
      {"measurement": "pIC50", "setting": "[11]; Homo sapiens, SK-BR-3, 120 h, Breast, SKBR-3, 120 h of exposure", "value": "≥ 6.82"},
      {"measurement": "pIC50", "setting": "[11]; Table 2, Breast, SKBR-3, 120 hrs of exposure", "value": "≥ 6.82"},
      {"measurement": "pIC50", "setting": "[12]", "value": "6.30 to 6.82"},
      {"measurement": "pIC50", "setting": "[13]", "value": "6.30 to 6.82"},
      {"measurement": "pIC50", "setting": "[14]", "value": "5.82 to 6.29"}
    ]}
  ]
}
